The source of these data is patent publication US9815846B2 (Merck Sharp & Dohme Corp., priority 2014, dated 2017).

By IC50 is commonly meant the concentration needed to halve the response being measured. The low end stands for greater potency, the high end for weaker potency.

The experiment deals with human TrkA receptor (Homo sapiens (Human), UniProt P04629). Description: DiscoverX PathHunter TrkA functional assay (NGF-stimulated U2OS cells). Type of experiment: cell-based. Particulars: U2OS cells expressing human TrkA-PK, Shc1-EA and p75NTR; compound 1 h, then NGF at ~80% of maximal response for 3 h; luminescence.
Chain of human TrkA receptor (P04629 33-796): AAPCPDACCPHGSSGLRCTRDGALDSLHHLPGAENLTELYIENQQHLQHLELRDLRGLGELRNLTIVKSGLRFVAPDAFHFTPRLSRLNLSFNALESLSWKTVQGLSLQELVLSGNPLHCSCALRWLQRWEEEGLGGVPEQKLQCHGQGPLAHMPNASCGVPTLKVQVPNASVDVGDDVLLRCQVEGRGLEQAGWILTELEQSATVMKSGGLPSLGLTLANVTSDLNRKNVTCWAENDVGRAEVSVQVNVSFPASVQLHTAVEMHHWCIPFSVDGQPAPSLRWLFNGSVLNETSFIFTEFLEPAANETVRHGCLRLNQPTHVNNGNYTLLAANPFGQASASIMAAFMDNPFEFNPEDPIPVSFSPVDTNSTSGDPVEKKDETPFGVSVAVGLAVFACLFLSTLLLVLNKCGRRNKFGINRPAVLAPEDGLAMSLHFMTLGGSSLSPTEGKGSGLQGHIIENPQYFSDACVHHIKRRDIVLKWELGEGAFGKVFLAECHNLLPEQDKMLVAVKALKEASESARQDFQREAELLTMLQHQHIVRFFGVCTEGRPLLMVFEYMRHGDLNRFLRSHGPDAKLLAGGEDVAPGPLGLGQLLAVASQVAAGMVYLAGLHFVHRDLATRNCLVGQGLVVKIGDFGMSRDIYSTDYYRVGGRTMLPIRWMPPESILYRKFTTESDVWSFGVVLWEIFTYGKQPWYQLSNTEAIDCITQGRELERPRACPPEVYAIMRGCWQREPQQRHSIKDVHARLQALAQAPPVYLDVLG
With `Cn1ccc(-c2cc(C(=O)Nc3cc4c(nc3-c3ccccc3)CCN(CC(N)=O)C4)ccc2C(F)(F)F)n1` [Example 140, N-(6-(2-Amino-2-oxoethyl)-2-phenyl-5,6,7,8-tetrahydro-1,6-naphthyridin-3-yl)-3-(1-methyl-1H-pyrazol-3-yl)-4-(trifluoromethyl)benzamide], the IC50 turned out to be 1.8 nM.
`Cn1ccc(-c2cc(C(=O)Nc3cc4c(nc3-c3ccccn3)CCNC4=O)c(F)cc2C(F)(F)F)n1` [Example 141, 2-Fluoro-5-(1-methyl-1H-pyrazol-3-yl)-N-(5-oxo-2-(pyridin-2-yl)-5,6,7,8-tetrahydro-1,6-naphthyridin-3-yl)-4-(trifluoromethyl)benzamide] gave an IC50 of 14 nM.
Next, `Cn1ccc(-c2cc(C(=O)Nc3cc4c(nc3-c3ccccc3)CNC(=O)C4)ccc2C(F)(F)F)n1` [Example 142, 3-(1-Methyl-1H-pyrazol-3-yl)-N-(6-oxo-2-phenyl-5,6,7,8-tetrahydro-1,7-naphthyridin-3-yl)-4-(trifluoromethyl)benzamide]: 4.7 nM.
In the case of `Cn1ccc(-c2cc(C(=O)Nc3cnc4c(c3-c3ccccc3)CCN(C(=O)CO)C4)ccc2C(F)(F)F)n1` [Example 143, N-(7-(2-Hydroxyacetyl)-4-phenyl-5,6,7,8-tetrahydro-1,7-naphthyridin-3-yl)-3-(1-methyl-1H-pyrazol-3-yl)-4-(trifluoromethyl)benzamide] it was 19 nM; in that of `Cn1ccc(-c2cc(C(=O)Nc3cc4c(nc3-c3ccccc3)CN(C(N)=O)CC4)c(F)cc2C(F)(F)F)n1` [Example 144, 3-(2-Fluoro-5-(1-methyl-1H-pyrazol-3-yl)-4-(trifluoromethyl)benzamido)-2-phenyl-5,6-dihydro-1,7-naphthyridine-7(8H)-carboxamide], 0.26 nM.
In the case of `Cn1ccc(-c2cc(C(=O)Nc3cc4c(nc3-c3ccccc3)CCNC4)c(F)cc2C(F)(F)F)n1` [Example 145, 2-fluoro-5-(1-methyl-1H-pyrazol-3-yl)-N-(2-phenyl-5,6,7,8-tetrahydro-1,6-naphthyridin-3-yl)-4-(trifluoromethyl)benzamide] it was 2.9 nM; in that of `O=C(Nc1cc2c(nc1-c1ccccc1)CCNC2)c1cc(-c2ccccn2)c(C(F)(F)F)cc1F` [Example 146, 2-fluoro-N-(2-phenyl-5,6,7,8-tetrahydro-1,6-naphthyridin-3-yl)-5-(pyridin-2-yl)-4-(trifluoromethyl)benzamide], 13 nM; in that of `CC(=O)N1CCc2nc(-c3ccccc3)c(NC(=O)c3ccc(C(F)(F)F)c(-c4ncccn4)c3)cc2C1` [Example 147, N-(6-acetyl-2-phenyl-5,6,7,8-tetrahydro-1,6-naphthyridin-3-yl)-3-(pyrimidin-2-yl)-4-(trifluoromethyl)benzamide], 14 nM.
Molecule `CC(=O)N1CCc2nc(-c3ccccc3)c(NC(=O)c3cc(-c4ncccn4)c(C(F)(F)F)cc3F)cc2C1` [Example 148, N-(6-acetyl-2-phenyl-5,6,7,8-tetrahydro-1,6-naphthyridin-3-yl)-2-fluoro-5-(pyrimidin-2-yl)-4-(trifluoromethyl)benzamide] showed an IC50 of 3.3 nM.
In the case of `CS(=O)(=O)N1CCc2nc(-c3ccccc3)c(NC(=O)c3cc(-c4ncccn4)c(C(F)(F)F)cc3F)cc2C1` [Example 149, 2-fluoro-N-(6-(methylsulfonyl)-2-phenyl-5,6,7,8-tetrahydro-1,6-naphthyridin-3-yl)-5-(pyrimidin-2-yl)-4-(trifluoromethyl)benzamide] it was 11 nM; in that of `CNC(=O)N1CCc2nc(-c3ccccc3)c(NC(=O)c3cc(-c4ncccn4)c(C(F)(F)F)cc3F)cc2C1` [Example 150, 3-(2-fluoro-5-(pyrimidin-2-yl)-4-(trifluoromethyl)benzamido)-N-methyl-2-phenyl-7,8-dihydro-1,6-naphthyridine-6(5H)-carboxamide], 14 nM; in that of `CC(=O)N1CCc2nc(-c3ccccc3)c(NC(=O)c3cc(-c4ccn(C)n4)c(C(F)(F)F)cc3Cl)cc2C1` [Example 151, N-(6-acetyl-2-phenyl-5,6,7,8-tetrahydro-1,6-naphthyridin-3-yl)-2-chloro-5-(1-methyl-1H-pyrazol-3-yl)-4-(trifluoromethyl)benzamide], 0.54 nM.
In the case of `Cn1ccc(-c2cc(C(=O)Nc3cc4c(nc3-c3ccccc3)CCNC4=O)c(F)cc2C(F)(F)F)n1` [Example 152, 2-fluoro-5-(1-methyl-1H-pyrazol-3-yl)-N-(5-oxo-2-phenyl-5,6,7,8-tetrahydro-1,6-naphthyridin-3-yl)-4-(trifluoromethyl)benzamide] it was 0.069 nM; in that of `Cn1ccc(-c2cc(C(=O)Nc3cc4c(nc3-c3ccccc3)CC(=O)NC4)c(F)cc2C(F)(F)F)n1` [Example 153, 2-fluoro-5-(1-methyl-1H-pyrazol-3-yl)-N-(7-oxo-2-phenyl-5,6,7,8-tetrahydro-1,6-naphthyridin-3-yl)-4-(trifluoromethyl)benzamide], 6.8 nM; in that of `Cn1ccc(-c2cc(C(=O)Nc3cc4c(nc3-c3ccccc3)CCN(C(N)=O)C4)c(F)cc2C(F)(F)F)n1` [Example 154, 3-(2-fluoro-5-(1-methyl-1H-pyrazol-3-yl)-4-(trifluoromethyl)benzamido)-2-phenyl-7,8-dihydro-1,6-naphthyridine-6(5H)-carboxamide], 0.76 nM.
In the case of `NC(=O)N1CCc2nc(-c3ccccc3)c(NC(=O)c3cc(-c4ncccn4)c(C(F)(F)F)cc3F)cc2C1` [Example 155, 3-(2-fluoro-5-(pyrimidin-2-yl)-4-(trifluoromethyl)benzamido)-2-phenyl-7,8-dihydro-1,6-naphthyridine-6(5H)-carboxamide] it was 2.3 nM; in that of `Cn1ccc(-c2cc(C(=O)Nc3cc4c(nc3-c3ccccc3)CCN(C(=O)CN)C4)ccc2C(F)(F)F)n1` [Example 156, N-(6-glycyl-2-phenyl-5,6,7,8-tetrahydro-1,6-naphthyridin-3-yl)-3-(1-methyl-1H-pyrazol-3-yl)-4-(trifluoromethyl)benzamide], 1 nM; in that of `Cn1ccc(-c2cc(C(=O)Nc3cc4c(nc3-c3ccccc3)CCN(CC(=O)O)C4)ccc2C(F)(F)F)n1` [Example 157, 2-(3-(3-(1-methyl-1H-pyrazol-3-yl)-4-(trifluoromethyl)benzamido)-2-phenyl-7,8-dihydro-1,6-naphthyridin-6(5H)-yl)acetic acid], 23 nM.
Regarding `Cn1ccc(-c2cc(C(=O)Nc3cc4c(nc3-c3ccccc3)CCN(CCO)C4)ccc2C(F)(F)F)n1` [Example 158, N-(6-(2-hydroxyethyl)-2-phenyl-5,6,7,8-tetrahydro-1,6-naphthyridin-3-yl)-3-(1-methyl-1H-pyrazol-3-yl)-4-(trifluoromethyl)benzamide], the midpoint of inhibition, the IC50, lay at 7.5 nM. Compared with the last molecule, the IC50 is about 3.1-fold lower.
For the molecule `Cn1ccc(-c2cc(C(=O)Nc3cnc4c(c3-c3ccccc3)CCNC4=O)ccc2C(F)(F)F)n1` [Example 159, 3-(1-methyl-1H-pyrazol-3-yl)-N-(8-oxo-4-phenyl-5,6,7,8-tetrahydro-1,7-naphthyridin-3-yl)-4-(trifluoromethyl)benzamide], inhibition was half-maximal at 260 nM (IC50).
Next, `Cn1ccc(-c2cc(C(=O)Nc3cnc4c(c3-c3ccccc3)CN(C(=O)CO)CC4)ccc2C(F)(F)F)n1` [Example 160, N-(6-(2-hydroxyacetyl)-4-phenyl-5,6,7,8-tetrahydro-1,6-naphthyridin-3-yl)-3-(1-methyl-1H-pyrazol-3-yl)-4-(trifluoromethyl)benzamide]: 4.7 nM.
In the case of `Cn1ccc(-c2cc(C(=O)Nc3cc4c(nc3-c3ccccc3)CNC4=O)c(F)cc2C(F)(F)F)n1` [Example 161, 2-fluoro-5-(1-methyl-1H-pyrazol-3-yl)-N-(5-oxo-2-phenyl-6,7-dihydro-5H-pyrrolo[3,4-b]pyridin-3-yl)-4-(trifluoromethyl)benzamide] it was 0.38 nM; in that of `O=C(Nc1cc2c(nc1-c1ccccc1)CN(C(=O)CO)C2)c1cc(-c2ncccn2)c(C(F)(F)F)cc1F` [Example 162, 2-fluoro-N-(6-(2-hydroxyacetyl)-2-phenyl-6,7-dihydro-5H-pyrrolo[3,4-b]pyridin-3-yl)-5-(pyrimidin-2-yl)-4-(trifluoromethyl)benzamide], 180 nM.
In turn, `C[C@@H](O)C(=O)N1CCc2nc(-c3ccccc3)c(NC(=O)c3ccc(C(F)(F)F)c(-c4ccn(C)n4)c3)cc2C1` [Example 163, (R)-N-(6-(2-hydroxypropanoyl)-2-phenyl-5,6,7,8-tetrahydro-1,6-naphthyridin-3-yl)-3-(1-methyl-1H-pyrazol-3-yl)-4-(trifluoromethyl)benzamide] came in with an IC50 of 1.3 nM.
Next, `Cn1ccc(-c2cc(C(=O)Nc3cc(-c4ccc(C(N)=O)cn4)cnc3-c3ccccc3)c(F)cc2C(F)(F)F)n1` [Example 164, 5′-(2-Fluoro-5-(1-methyl-1H-pyrazol-3-yl)-4-(trifluoromethyl)benzamido)-6′-phenyl-[2,3′-bipyridine]-5-carboxamide]: 0.51 nM.
In the case of `NC(=O)c1ccc(-c2cnc(-c3ccccc3)c(NC(=O)c3cc(-c4cc[nH]n4)c(C(F)(F)F)cc3F)c2)cc1` [Example 165, N-(5-(4-carbamoylphenyl)-2-phenylpyridin-3-yl)-2-fluoro-5-(1H-pyrazol-3-yl)-4-(trifluoromethyl)benzamide] it was 2.3 nM.
Next, `CNC(=O)c1ccc(-c2cnc(-c3ccccc3)c(NC(=O)c3cc(-c4cc[nH]n4)c(C(F)(F)F)cc3F)c2)cc1` [Example 166, 2-fluoro-N-(5-(4-(methylcarbamoyl)phenyl)-2-phenylpyridin-3-yl)-5-(1H-pyrazol-3-yl)-4-(trifluoromethyl)benzamide]: 12 nM; `O=C(Nc1cc(Oc2ccccn2)cnc1-c1ccccc1)c1cc(-c2ncccn2)c(C(F)(F)F)cc1F` [Example 167, 2-fluoro-N-(2-phenyl-5-(pyridin-2-yloxy)pyridin-3-yl)-5-(pyrimidin-2-yl)-4-(trifluoromethyl)benzamide]: 24 nM.
The molecule `O=C(Nc1cc(-c2ccc(CO)cn2)cnc1-c1ccccc1)c1cc(-c2ncccn2)c(C(F)(F)F)cc1F` [Example 168, 2-fluoro-N-(5-(hydroxymethyl)-6′-phenyl-[2,3′-bipyridin]-5′-yl)-5-(pyrimidin-2-yl)-4-(trifluoromethyl)benzamide] registered an IC50 of 0.68 nM.
